Experimental data taken from US6872850B2, “Small molecule inhibitors of secretion of proteins encoded by ARE-mRNAs” (Message Pharmaceuticals, priority 2001, dated 2005).

Tested on: 3′ UTR of the TNFα gene
Assay: cell-based luciferase reporter assay, 5B cell line (luciferase gene with entire 3′ UTR of the TNFα gene)
Set-up: species or system mouse
Conditions: for Luciferase 5B (% of DMSO control) / Luciferase 5B/3B (% of DMSO control 5B)/(% of DMSO control 3B): 10 μM compound; for Luciferase 5B (% of DMSO control): 1 h, then LPS, 5B cell line; for Luciferase 5B/3B (% of DMSO control 5B)/(% of DMSO control 3B): ratio of 5B to control 3B cell line
Description: The candidate compounds were tested in a high-throughput, cell-based luciferase reporter assay. For this assay, a commercially available mouse macrophage Raw 264.7 cell line was stably transfected with a construct containing the CMV promoter operably linked to the luciferase gene which was modified using standard molecular biology techniques to contain the entire 3′ UTR of the TNFα gene. This 3′ UTR is important for the stability and translation of TNFα in cells. To control for effects of candidate compounds that are not specific for TNFα, a control cell line, called “3B,” was generated by stably transfecting the 264.7 cell line with a commercially available construct containing the luciferase gene (without the addition of the heterologous 3′ UTR of the TNFα gene) under the regulation of the CMV promoter.
[…] Then, lipopolysaccharide (LPS) was added to stimulate TNFα secretion. Luciferase activity was measured by determining the luminescence intensity due to the reaction of lucifern, ATP, Mg^2+, and molecular O2 (see, for example, Ausubel et al., supra). The luciferase activity in a cell incubated with a candidate compound was reported as a percentage of the luciferase activity for the corresponding cell incubated with DMSO vehicle only.
After correction for any effect caused by the administration of the DMSO only vehicle control, the effect of a candidate compound on luciferase activity in the 3B control cell line represents the global effect of the compound on any step required for expression or activity of luciferase protein, such as luciferase gene transcription, mRNA processing, mRNA stability, translation, protein stability, or enzymatic activity. […] In this case, the luciferase activity in the 5B cell line treated with the DMSO vehicle control is similar to the luciferase activity in the control 3B cell line treated with the candidate compound. Thus, the response of the 5B cell line (as a percent of the DMSO control) and the ratio of the luciferase activity in the 5B cell line (as a percent of the DMSO control) to the luciferase activity in the control 3B cell line (as a percent of the DMSO control) are similar. In desirable embodiments, the response of the 5B cell line and the 5B/3B ratio differ by less than 50, 40, 30, 20, 10, or 5%.

Row | SMILES | effect on luciferase activity in the 5B cell line (luciferase assay), in words | Luciferase 5B (% of DMSO control) | Luciferase 5B/3B (% of DMSO control 5B)/(% of DMSO control 3B)
1 | CC(=NN=C(N)N)c1cccc(C(=O)NC(CC(C)C)C(=O)N2CCN(C(=O)C(CC(C)C)NC(=O)c3ccc(C(=NN=C(N)N)c4ccccc4)cc3)CC2)c1 (mixture of isomers) [MES 11408] | decrease TNFα secretion | 59 % of DMSO control | 54 (% of DMSO control 5B)/(% of D
2 | CC(=NN=C(N)N)c1cccc(C(=O)NC(CC(C)C)C(=O)NCCCNC(=O)C(C)NC(=O)c2ccc(C(=NN=C(N)N)c3ccccc3)cc2)c1 (mixture of isomers) [MES 11411] | decrease TNFα secretion | 65 % of DMSO control | 71 (% of DMSO control 5B)/(% of D
3 | CC(=NNC(=N)N)c1cccc(C(=O)NC(CC(C)C)C(=O)N2CCN(C(=O)C(Cc3ccc([N+](=O)[O-])cc3)NC(=O)c3ccc(C(=NNC(=N)N)c4ccccc4)cc3)CC2)c1 (mixture of isomers) [MES 10257] |  | 34 % of DMSO control | 60 (% of DMSO control 5B)/(% of DMSO control 3B)
4 | CC(C)CC(NC(=O)c1ccc(Cl)cc1)C(=O)N1CCN(C(=O)C(Cc2ccccc2)NC(=O)c2ccc(C(=NNC(=N)N)c3ccccc3)cc2)CC1 (mixture of isomers) [MES 10227] |  | 34 % of DMSO control | 39 (% of DMSO control 5B)/(% of D
5 | O=C(N[C@@H](Cc1ccccc1)C(=O)N1CCN(C(=O)CCCC(=O)N2CCN(c3ccccc3)CC2)CC1)c1ccc(C(=O)c2ccccc2)cc1 [MES 10246] |  | 46 % of DMSO control | 74 (% of DMSO control 5B)/(% of D
6 | CC(C)CC(NC(=O)c1ccc2ccccc2c1)C(=O)N1CCN(C(=O)C(Cc2ccccc2)NC(=O)c2ccc(C(=NNC(=N)N)c3ccccc3)cc2)CC1 (mixture of isomers) [MES 10228] |  | 38 % of DMSO control | 40 (% of DMSO control 5B)/(% of D
7 | CC(=NNC(=N)N)c1cccc(C(=O)NC(CC2CCCCC2)C(=O)N2CCN(C(=O)C(Cc3ccccc3)NC(=O)c3ccc(C(=NNC(=N)N)c4ccccc4)cc3)CC2)c1 (mixture of isomers) [MES 10181] | inhibited TNFα secretion | 17 % of DMSO control | 49 (% of DMSO control 5B)/(% of DMSO control 3B)
8 | CN1CCN(C(=O)CCC(=O)N2CCN(C(=O)[C@H](Cc3ccccc3)NC(=O)c3ccc(C(=O)c4ccccc4)cc3)CC2)CC1 [MES 10301] |  | 76 % of DMSO control | 105 (% of DMSO control 5B)/(% of D
9 | CC(C)CC(NC(=O)c1ccc(C(=NNC(=N)N)c2ccccc2)cc1)C(=O)N1CCN(C(=O)C(Cc2ccccc2)NC(=O)CCc2cccnc2)CC1 (mixture of isomers) [MES 10234] |  | 60 % of DMSO control | 58 (% of DMSO control 5B)/(% of D
10 | CC(C)CC(NC(=O)c1ccc(C(=NNC(=N)N)c2ccccc2)cc1)C(=O)N1CCN(C(=O)C(Cc2ccccc2)NC(=O)c2cnccn2)CC1 (mixture of isomers) [MES 10235] |  | 70 % of DMSO control | 75 (% of DMSO control 5B)/(% of D
11 | CC(=NNC(=N)N)c1cccc(C(=O)NC(C)C(=O)N2CCN(C(=O)C(Cc3ccccc3)NC(=O)c3ccc(C(=NNC(=N)N)c4ccccc4)cc3)CC2)c1 (mixture of isomers) [MES 11465] | decrease TNFα secretion | 72 % of DMSO control | 71 (% of DMSO control 5B)/(% of D
12 | CC(NC(=O)c1ccc(C(=O)c2ccccc2)cc1)C(=O)N1CCN(C(=O)CCC(=O)N2CCN(c3ccccc3)CC2)CC1 (stereo not shown) [MES 10304] |  | 49 % of DMSO control | 64 (% of DMSO control 5B)/(% of D
